# According to article PMC9763333, “In vitro characterization of immune modulating drug-eluting immunobeads towards transarterial embolization in cancer” (Scientific Reports, 2022):
# Where “and” joins values, the source holds several entries; their conditions need not be identical. Equal entries are not always repeated. Entries after “also recorded” stand apart in the source; their conditions may differ.
# Assays:
# Type in all cases: physicochemical
# [1] = Drug release from DC Bead LUMI in saline; details: for release in saline from DC Bead LUMI after multiple washes in deionized water: single replicates
# Procedure: […] Briefly, drug-loaded DC Bead LUMI or LC Bead (62.5 µL) were placed in vessels with 50 mL of saline ([…], pH 7.4) and were agitated with upright rocking motion at a set maximum rocking speed of 10 (70 rpm) for 144 h at 37 °C using Ward's® Rotating Mixer. At scheduled time intervals identical to the loading time points, 1 mL of release media was withdrawn and used for drug quantification. To maintain 50 mL total elution volume, 1 mL of fresh saline pre heated to 37 °C was replaced at each timepoint. […] 2.4. The cumulative amount of drug released at each time point was calculated by multiplying the concentration of each sample aliquot by the total volume (50 mL) of release media and adding the sum of the amount of drug removed for sampling at prior time points. […] The 50 mL volume was chosen to ensure infinite sink conditions where the maximum possible concentration of eluted drug would be at least 10 times more dilute than the maximum solubility. This ensures the rate of release is not affected by solution concentration but is only a function of interactions of the bead, drug, and saline.
# [2] = Washing of drug-loaded beads with deionized water and microscopic appearance
# Procedure: (§1) Drug loading was performed in triplicate as previously reported[45] with slight modifications. […] Washing of beads is often a critical step in drug release studies as any drug left unbound to the beads affects the release profile and exaggerates the early burst release. […] However, washing was discontinued for TLR drugs as drug was continually observed even after multiple washes. […] The amount of drug loaded at the specified time points was calculated by subtracting the amount of drug remaining from the initial amount of drug in the loading solution and the cumulative amount of drug withdrawn for sampling. The maximum drug loaded in the beads was calculated once no further change in the concentration in the loading solution could be measured and before washing the beads. The relative percent drug loaded was defined as the maximum amount of drug loaded as a percent of the amount of SO3^- ions available in the beads on a molar basis using the following formula and the results are presented as the mean ± SD.
# [3] = Drug loading into DC Bead LUMI
# Procedure: as §1, with “DC Bead LUMI was analyzed for its elemental composition by MEDAC Inc. […] Drug” for “Drug”
# [4] = Drug solubilization by salt formation in acid; details: T in °C in parentheses in the cell (20.1 or 21.1)
# Procedure: The base form of each drug was suspended in deionized water and titrated with 0.1 N hydrochloric acid (Fisher Scientific, Hampton, NH) while stirring until all the base was solubilized and the volume adjusted to a final concentration of 2.5 mg/mL. The resulting solution was frozen, then lyophilized to yield solid drug-hydrochloride salt or used in its solubilized form for loading into DC Bead LUMI. […] Doxorubicin.HCl was readily solubilized and used without modification. […] A ZORBAX Eclipse Plus C8 reversed-phase column (Agilent) and UV detector at wavelength of 230 nm were used for GS-9620 analysis. The decomposition product of GS-9620 was analyzed with reversed phase high-performance liquid chromatography (Rp-HPLC) and LC/MS.
smiles,measurement,setting,value
"CC(C)Cn1cnc2c(N)nc3ccccc3c21 [IMQ, imiquimod]",release in saline from DC Bead LUMI after multiple washes in deionized water,[1]; 5 min,3.738 mg/mL of beads and 1.905 mg/mL of beads and 0.7403 mg/mL of beads
same,release in saline from DC Bead LUMI after multiple washes in deionized water,[1]; 15 min,4.599 mg/mL of beads and 2.598 mg/mL of beads and 1.25 mg/mL of beads
same,release in saline from DC Bead LUMI after multiple washes in deionized water,[1]; 30 min,6.014 mg/mL of beads and 2.518 mg/mL of beads and 1.755 mg/mL of beads
same,release in saline from DC Bead LUMI after multiple washes in deionized water,[1]; 45 min,5.636 mg/mL of beads and 3.25 mg/mL of beads and 2.648 mg/mL of beads
same,release in saline from DC Bead LUMI after multiple washes in deionized water,[1]; 60 min,6.005 mg/mL of beads and 3.196 mg/mL of beads and 2.336 mg/mL of beads
same,release in saline from DC Bead LUMI after multiple washes in deionized water,[1]; 120 min,7.034 mg/mL of beads and 4.188 mg/mL of beads and 2.86 mg/mL of beads
same,release in saline from DC Bead LUMI after multiple washes in deionized water,[1]; 180 min,9.042 mg/mL of beads and 4.426 mg/mL of beads and 3.116 mg/mL of beads
same,release in saline from DC Bead LUMI after multiple washes in deionized water,[1]; 240 min,8.512 mg/mL of beads and 4.6972 mg/mL of beads and 3.19 mg/mL of beads
same,release in saline from DC Bead LUMI after multiple washes in deionized water,[1]; 300 min,8.8991 mg/mL of beads and 4.841 mg/mL of beads and 3.452 mg/mL of beads
same,release in saline from DC Bead LUMI after multiple washes in deionized water,[1]; 360 min,9.596 mg/mL of beads and 5.306 mg/mL of beads and 3.529 mg/mL of beads
same,release in saline from DC Bead LUMI after multiple washes in deionized water,[1]; 420 min,9.49 mg/mL of beads and 5.808 mg/mL of beads and 4.0861 mg/mL of beads
same,release in saline from DC Bead LUMI after multiple washes in deionized water,[1]; 480 min,9.552 mg/mL of beads and 5.445 mg/mL of beads and 3.722 mg/mL of beads
same,release in saline from DC Bead LUMI after multiple washes in deionized water,[1]; 1440 min,10.8637 mg/mL of beads and 7.881 mg/mL of beads and 6.056 mg/mL of beads
same,release in saline from DC Bead LUMI after multiple washes in deionized water,[1]; 2880 min,12.3732 mg/mL of beads and 7.686 mg/mL of beads and 6.267 mg/mL of beads
same,release in saline from DC Bead LUMI after multiple washes in deionized water,[1]; 4320 min,15.5973 mg/mL of beads and 8.751 mg/mL of beads and 7.964 mg/mL of beads
same,release in saline from DC Bead LUMI after multiple washes in deionized water,[1]; 8640 min,14.5448 mg/mL of beads and 10.1106 mg/mL of beads and 7.947 mg/mL of beads
same,release behaviour in saline,[1]; DC Bead LUMI,rapid release
same,removal of drug from beads by repeated washing with deionized water,[2]; DC Bead LUMI,partially removed
same,aggregation of drug during washing / elution,"[2]; deionized water and saline, microscopy",Aggregation of IMQ was observed; also recorded: formed aggregates; also recorded: exhibited aggregation
same,Relative percent drug loaded in DC Bead LUMI over time,"[3]; 5 min, single replicates",27.7169% and 54.7567% and 47.2582%
same,Relative percent drug loaded in DC Bead LUMI over time,"[3]; 15 min, single replicates",44.3244% and 64.1912% and 77.4846%
same,Relative percent drug loaded in DC Bead LUMI over time,"[3]; 30 min, single replicates",53.7652% and 98.7583% and 64.7248%
same,Relative percent drug loaded in DC Bead LUMI over time,"[3]; 45 min, single replicates",63.5604% and 86.8486% and 80.4348%
same,Relative percent drug loaded in DC Bead LUMI over time,"[3]; 60 min, single replicates",62.6391% and 89.327% and 89.6722%
same,Relative percent drug loaded in DC Bead LUMI over time,"[3]; 120 min, single replicates",76.6569% and 94.7702% and 91.6603%
same,Relative percent drug loaded in DC Bead LUMI over time,"[3]; 180 min, single replicates",84.3868% and 95.4708% and 91.4628%
same,Relative percent drug loaded in DC Bead LUMI over time,"[3]; 240 min, single replicates",88.4335% and 96.0638% and 91.7809%
same,Relative percent drug loaded in DC Bead LUMI over time,"[3]; 300 min, single replicates",89.1562% and 94.7965% and 91.1063%
same,Relative percent drug loaded in DC Bead LUMI over time,"[3]; 360 min, single replicates",89.8821% and 93.7278% and 90.6691%
same,Relative percent drug loaded in DC Bead LUMI over time,"[3]; 420 min, single replicates",89.552% and 95.0881% and 90.3963%
same,Relative percent drug loaded in DC Bead LUMI over time,"[3]; 480 min, single replicates",88.9036% and 95.9382% and 95.3273%
same,Relative percent drug loaded in DC Bead LUMI over time,"[3]; 1440 min, single replicates",88.6238% and 94.7298% and 89.6159%
same,Relative percent drug loaded in DC Bead LUMI over time,"[3]; 2880 min, single replicates",89.5863% and 97.1979% and 88.3669%
same,Relative percent drug loaded in DC Bead LUMI over time,"[3]; 4320 min, single replicates",89.4163% and 95.3897% and 90.7133%
same,Relative percent drug loaded in DC Bead LUMI over time,"[3]; 8640 min, single replicates",89.5369% and 92.0678% and 86.7361%
same,loading behaviour,[3]; DC Bead LUMI,Fast loading
same,"Relative percent drug loaded (maximum, percent of SO3− available on a molar basis)","[3]; DC Bead LUMI, mean (n = 3)",95% and 94.66%
same,equivalent of drug loaded to sulfonated bead,"[3]; DC Bead LUMI, mean ± SD",0.27 ± 0.01 mM drug/ml beads
same,Maximum drug loaded,"[3]; DC Bead LUMI, mean ± SD, n = 3, base form except Dox (salt form)",65.28 ± 3.09 mg drug/ml beads
same,"Maximum drug loaded (Triplicate), %","[3]; DC Bead LUMI, single replicates",89.8821% and 98.7583% and 95.3273%
same,Drug: sulfonate,"[3]; molar ratio at maximum loading, DC Bead LUMI",0.946
same,Theoretical maximum loading level based on SO3− contents,"[3]; per mL DC Bead LUMI, assuming 1:1 drug to sulfonate",68.97 mg
same,pH at which each drug dissolved for loading,[4],2.06 (20.1)
